In the NIST ThermoML archive (doi:10.1007/s10765-006-0033-6):

Assay: compressibility factor (dimensionless); xn = mol fraction of the nth substance listed
Details: Gas, Other PVT measurement

[N-]=[N+]=O [nitrous oxide] + FCF
Details | compressibility factor
303.23 K, 131 kPa, x1 = 0.2958 | 0.9882
303.23 K, 133.7 kPa, x1 = 0.3826 | 0.9887
303.23 K, 194.9 kPa, x1 = 0.2958 | 0.9827
303.23 K, 199.1 kPa, x1 = 0.3826 | 0.9838
303.23 K, 213.1 kPa, x1 = 0.7326 | 0.9893
303.23 K, 235.1 kPa, x1 = 0.6589 | 0.9847
303.23 K, 289.2 kPa, x1 = 0.2958 | 0.9746
303.23 K, 295.5 kPa, x1 = 0.3826 | 0.9761
303.23 K, 316.4 kPa, x1 = 0.7326 | 0.9819
303.23 K, 349.2 kPa, x1 = 0.6589 | 0.9776
303.23 K, 356.8 kPa, x1 = 0.448 | 0.9708
303.23 K, 427.1 kPa, x1 = 0.2958 | 0.9622
303.23 K, 436.8 kPa, x1 = 0.3826 | 0.9645
303.23 K, 468.8 kPa, x1 = 0.7326 | 0.9723
303.23 K, 516.7 kPa, x1 = 0.6589 | 0.9669
303.23 K, 526.5 kPa, x1 = 0.448 | 0.9574
303.23 K, 626.7 kPa, x1 = 0.2958 | 0.9437
303.23 K, 641.7 kPa, x1 = 0.3826 | 0.947
303.23 K, 691.2 kPa, x1 = 0.7326 | 0.9582
303.23 K, 760.2 kPa, x1 = 0.6589 | 0.9509
303.23 K, 771.2 kPa, x1 = 0.448 | 0.9375
303.23 K, 910.7 kPa, x1 = 0.2958 | 0.9166
303.23 K, 933.9 kPa, x1 = 0.3826 | 0.9213
303.23 K, 1012.1 kPa, x1 = 0.7326 | 0.9378
303.23 K, 1108.8 kPa, x1 = 0.6589 | 0.927
303.23 K, 1117.6 kPa, x1 = 0.448 | 0.9081
303.23 K, 1303.4 kPa, x1 = 0.2958 | 0.8768
303.23 K, 1340.2 kPa, x1 = 0.3826 | 0.8837
303.23 K, 1465.6 kPa, x1 = 0.7326 | 0.9077
303.23 K, 1593.4 kPa, x1 = 0.448 | 0.8653
303.23 K, 1596.2 kPa, x1 = 0.6589 | 0.892
303.23 K, 1822 kPa, x1 = 0.2958 | 0.8193
303.23 K, 1881.5 kPa, x1 = 0.3826 | 0.8292
303.23 K, 2086.1 kPa, x1 = 0.7326 | 0.8636
303.23 K, 2214.2 kPa, x1 = 0.448 | 0.8037
303.23 K, 2252 kPa, x1 = 0.6589 | 0.8412
303.23 K, 2454.7 kPa, x1 = 0.2958 | 0.7378
303.23 K, 2551.4 kPa, x1 = 0.3826 | 0.7516
303.23 K, 2892.7 kPa, x1 = 0.7326 | 0.8004
303.23 K, 2954.5 kPa, x1 = 0.448 | 0.7169
303.23 K, 3079.5 kPa, x1 = 0.6589 | 0.7688
303.23 K, 3848.9 kPa, x1 = 0.7326 | 0.7119
303.23 K, 4005.3 kPa, x1 = 0.6589 | 0.6684
323.44 K, 159 kPa, x1 = 0.5714 | 0.9902
323.44 K, 237 kPa, x1 = 0.5714 | 0.9864
323.44 K, 254.6 kPa, x1 = 0.745 | 0.9868
323.44 K, 352.4 kPa, x1 = 0.5714 | 0.9806
323.44 K, 378.8 kPa, x1 = 0.745 | 0.9812
323.44 K, 522.4 kPa, x1 = 0.5714 | 0.9714
323.44 K, 561.8 kPa, x1 = 0.745 | 0.9727
323.44 K, 770.4 kPa, x1 = 0.5714 | 0.9577
323.44 K, 829.3 kPa, x1 = 0.745 | 0.9598
323.44 K, 1128 kPa, x1 = 0.5714 | 0.9372
323.44 K, 1215.8 kPa, x1 = 0.745 | 0.9406
323.44 K, 1633.3 kPa, x1 = 0.5714 | 0.9071
323.44 K, 1764.2 kPa, x1 = 0.745 | 0.9123
323.44 K, 2325.6 kPa, x1 = 0.5714 | 0.8633
323.44 K, 2519.5 kPa, x1 = 0.745 | 0.8708
323.44 K, 3228.5 kPa, x1 = 0.5714 | 0.8011
323.44 K, 3513.7 kPa, x1 = 0.745 | 0.8117
323.44 K, 4726.6 kPa, x1 = 0.745 | 0.7299
323.45 K, 119.4 kPa, x1 = 0.4108 | 0.9909
323.45 K, 128.6 kPa, x1 = 0.3236 | 0.9894
323.45 K, 141.9 kPa, x1 = 0.2465 | 0.9883
323.45 K, 178 kPa, x1 = 0.4108 | 0.9879
323.45 K, 191.7 kPa, x1 = 0.3236 | 0.986
323.45 K, 211.5 kPa, x1 = 0.2465 | 0.984
323.45 K, 265 kPa, x1 = 0.4108 | 0.9831
323.45 K, 285.1 kPa, x1 = 0.3236 | 0.9802
323.45 K, 314.1 kPa, x1 = 0.2465 | 0.9771
323.45 K, 393.4 kPa, x1 = 0.4108 | 0.9754
323.45 K, 422.8 kPa, x1 = 0.3236 | 0.9714
323.45 K, 464.8 kPa, x1 = 0.2465 | 0.9664
323.45 K, 581.5 kPa, x1 = 0.4108 | 0.9636
323.45 K, 623.6 kPa, x1 = 0.3236 | 0.9578
323.45 K, 683.5 kPa, x1 = 0.2465 | 0.9499
323.45 K, 854.1 kPa, x1 = 0.4108 | 0.946
323.45 K, 912.9 kPa, x1 = 0.3236 | 0.9372
323.45 K, 996.3 kPa, x1 = 0.2465 | 0.9254
323.45 K, 1242.3 kPa, x1 = 0.4108 | 0.9198
323.45 K, 1321.6 kPa, x1 = 0.3236 | 0.9069
323.45 K, 1433.4 kPa, x1 = 0.2465 | 0.8899
323.45 K, 1781.4 kPa, x1 = 0.4108 | 0.8816
323.45 K, 1881.4 kPa, x1 = 0.3236 | 0.8629
323.45 K, 2021.2 kPa, x1 = 0.2465 | 0.8388
323.45 K, 2499.7 kPa, x1 = 0.4108 | 0.8269
323.45 K, 2610.3 kPa, x1 = 0.3236 | 0.8003
343.77 K, 139.1 kPa, x1 = 0.2266 | 0.9898
